Earlier results on one molecule are cited in US8460861B2, “Method for producing hydrogen-containing fluid able to be used in a living organism” (MIZ Co. Ltd., priority 2009, dated 2013).

For this data set the following is noted: 20 C degrees under 1 barometric pressure.

As for `[HH]` [molecular hydrogen], the saturation concentration was 1.6 ppm.
